In patent US20090018150A1, “5-Ht2b Receptor Antagonists” (ASTERAND UK LIMITED, priority 2003, published 2009):

Assays:
[1] = molecular target: T1, human cloned 5-HT2B receptors (Homo sapiens, UniProt P41595); assay: Human cloned 5-HT2B receptor binding assay; conditions: [3H]LSD (1 nM) displacement, membranes of CHO-K1 cells expressing cloned 5-HT2B receptor; read-out: 5-HT2B pKi (converted)
T1 construct: expressed in transfected cells; host or cells: CHO-K1
Method: The binding affinity of the compounds for human cloned 5-HT2B receptors was determined using the following assay.
CHO-K1 cells expressing cloned 5-HT2B receptor were maintained in Ultra-CHO medium containing 400 μg/ml of G418, 100 U/ml penicillin, 100 μg/ml streptomycin, 2.5 μg/ml fungizone and 1-foetal bovine serum, in 95/5% O2/CO2 at 37° C. The cells were harvested using 0.25% trypsin and were centrifuged at 800 rpm for 8 minutes. The cells were homogenised in 50 mM HEPES buffer containing 1 mM disodium EDTA and 1 mM PMSF at pH 7.4, using a Dounce homogeniser (20 strokes). The homogenate was centrifuged at 2280 rpm (1000 g) and 4° C. for 10 minutes, after which the supernatant was removed by decanting. The pellet was re-homogenised as above, and the resulting supernatant removed and combined with that already obtained. The supernatant solution was then centrifuged at 18300 rpm (40000 g) for 10 minutes at 4° C. using a Sorvall centrifuge. The supernatant was removed, and the pellet was re-suspended in 50 mM buffer at pH 7.4 using a Ultra-turrax T25 Polytron, before centrifugation again at 40000 g as above. This wash procedure was repeated, after which the membrane preparation was stored at a concentration of 1 mg/ml at −80° C. until use.
The membranes were thawed rapidly and diluted in assay buffer containing Tris-HCl (50 mM, pH 7.4), ascorbic acid (0.1°) and calcium chloride (4 mM). The membranes were homogenised to resuspend them, prior to adding 10 or 15 μg of membranes to assay wells containing [^3H]LSD (1 nM), assay buffer (50 mM Tris, 4 mM calcium chloride and 0.1° ascorbic acid) containing pargyline (10 μM), and the test compounds (1×10^−10 to 1×10^−4M). Non specific binding was determined in the presence of 100 μM 5-HT. After 30 minutes incubation at 37° C., the assay mixture was filtered through a combination of GF-C and GF-B filters, pre-soaked in 1% polyethyleneimine, using a Brandel cell harvester, and were washed three times using 50 mM Tris-HCl. Radioactivity retained on the filters was determined by liquid scintillation counting. For each test compound, the concentration that inhibited binding of [^3H]LSD by 50% was determined using curve fitting software (Prism). Kd values (concentration of LSD required to occupy 50% of the receptor binding sites at equilibrium) determined from saturation binding studies were then used to calculate inhibition dissociation constants (Ki) using the following equation: […]
This approach follows that set out in Kenakin, T. P. Pharmacologic analysis of drug-receptor interaction. Raven Press, New York, 2nd Edition.

[2] = molecular target: T2, cloned human 5-HT2C receptor (Homo sapiens, UniProt P28335); assay: Human 5-HT2C receptor binding assay; conditions: [3H]mesulergine (1 nM) displacement, CHO-K1 cell membranes; read-out: 5-HT2C pKi (converted)
T2 construct: purchased Euroscreen; host or cells: CHO-K1
T2 sequence (P28335 33-458): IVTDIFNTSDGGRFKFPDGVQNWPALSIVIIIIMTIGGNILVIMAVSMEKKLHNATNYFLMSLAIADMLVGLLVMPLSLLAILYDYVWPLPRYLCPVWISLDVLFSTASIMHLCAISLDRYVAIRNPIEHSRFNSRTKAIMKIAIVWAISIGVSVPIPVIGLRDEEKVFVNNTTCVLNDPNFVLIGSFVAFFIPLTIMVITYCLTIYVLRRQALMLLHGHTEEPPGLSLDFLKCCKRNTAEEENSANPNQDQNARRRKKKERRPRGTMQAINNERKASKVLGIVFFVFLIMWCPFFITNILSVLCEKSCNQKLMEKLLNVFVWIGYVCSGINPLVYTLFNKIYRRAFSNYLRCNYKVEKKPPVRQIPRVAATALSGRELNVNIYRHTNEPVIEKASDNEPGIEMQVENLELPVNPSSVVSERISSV
Method: (§1) The binding affinity of ligands for human 5-HT2A and 5-HT2C receptors was determined using the following assay.
Membrane preparations from CHO-K1 cells expressing the cloned human 5-HT2C receptor were obtained (Euroscreen). The membranes were thawed rapidly and diluted in assay buffer containing Tris-HCl (50 mM, pH 7.7), ascorbic acid (0.1%) and pargyline (10 μM). The membranes were resuspended by homogenisation, prior to adding 6 μg of membranes to assay wells containing [^3H]mesulergine (1 nM), assay buffer (50 mM Tris at pH 7.7 and 0.1% ascorbic acid) containing pargyline (10 μM), and test compounds (1×10^−10 to 1×10^−4M). Non specific binding was determined in the presence of 100 μM mianserin. After 30 minutes incubation at 37° C., the assay mixture was filtered through a combination of GF-C and GF-B filters, pre-soaked in 1% bovine serum albumin, using a Brandel cell harvester, and were washed three times using ice cold Tris-HCl buffer (50 mM). Radioactivity retained on the filters was determined by liquid scintillation counting. For each test compound, the concentration that inhibited binding of [^3H]mesulergine by 50% was determined using curve fitting software (Prism). Kd values (concentration of mesulergine required to occupy 50% of the receptor binding sites at equilibrium) determined from saturation binding studies were then used to calculate inhibition dissociation constants (Ki) using the following equation: […]

[3] = molecular target: T3, cloned human 5-HT2A receptor (Homo sapiens, UniProt P28223); assay: Human 5-HT2A receptor binding assay; conditions: [3H]ketanserin (1 nM) displacement, CHO-K1 cell membranes; read-out: 5-HT2A pKi (converted)
T3 construct: purchased Euroscreen; host or cells: CHO-K1
Method: as §1
Membrane preparations from CHO-K1 cells expressing the cloned human 5-HT2A receptor were obtained (Euroscreen). The membranes were thawed rapidly and diluted in assay buffer containing Tris-HCl (50 mM, pH 7.7). The membranes were resuspended by homogenisation, prior to adding 15 μg of membranes to assay wells containing [3H]ketanserin (1 nM), assay buffer (50 mM Tris at pH 7.4) containing pargyline (10 μM), and test compounds (1×10^−10 to 1×10^−4M). Non specific binding was determined in the presence of 100 μM mianserin. After 15 minutes incubation at 37° C., the assay mixture was filtered through a combination of GF-C and GF-B filters, pre-soaked in 0.05% Brij, using a Brandel cell harvester, and were washed three times using ice cold Tris-HCl buffer (50 mM). Radioactivity retained on the filters was determined by liquid scintillation counting. For each test compound, the concentration that inhibited binding of [^3H]ketanserin by 50% was determined using curve fitting software (Prism). Kd values (concentration of ketanserin required to occupy 50% of the receptor binding sites at equilibrium) determined from saturation binding studies were then used to calculate inhibition dissociation constants (Ki) using the following equation: […]

T1 sequence (P41595 whole entry): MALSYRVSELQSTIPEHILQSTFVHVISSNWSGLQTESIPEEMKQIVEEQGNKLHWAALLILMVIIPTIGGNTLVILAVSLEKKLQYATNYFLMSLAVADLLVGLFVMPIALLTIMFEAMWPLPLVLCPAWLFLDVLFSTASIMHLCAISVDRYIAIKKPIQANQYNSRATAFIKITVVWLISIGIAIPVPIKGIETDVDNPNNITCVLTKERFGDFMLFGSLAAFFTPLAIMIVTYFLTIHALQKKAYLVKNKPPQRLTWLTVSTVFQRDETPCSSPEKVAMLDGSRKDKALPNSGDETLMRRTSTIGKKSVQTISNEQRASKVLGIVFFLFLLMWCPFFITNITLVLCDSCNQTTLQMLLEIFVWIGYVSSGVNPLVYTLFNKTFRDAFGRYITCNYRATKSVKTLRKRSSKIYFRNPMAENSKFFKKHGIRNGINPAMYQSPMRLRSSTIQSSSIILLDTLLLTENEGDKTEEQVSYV
T3 sequence (P28223 whole entry): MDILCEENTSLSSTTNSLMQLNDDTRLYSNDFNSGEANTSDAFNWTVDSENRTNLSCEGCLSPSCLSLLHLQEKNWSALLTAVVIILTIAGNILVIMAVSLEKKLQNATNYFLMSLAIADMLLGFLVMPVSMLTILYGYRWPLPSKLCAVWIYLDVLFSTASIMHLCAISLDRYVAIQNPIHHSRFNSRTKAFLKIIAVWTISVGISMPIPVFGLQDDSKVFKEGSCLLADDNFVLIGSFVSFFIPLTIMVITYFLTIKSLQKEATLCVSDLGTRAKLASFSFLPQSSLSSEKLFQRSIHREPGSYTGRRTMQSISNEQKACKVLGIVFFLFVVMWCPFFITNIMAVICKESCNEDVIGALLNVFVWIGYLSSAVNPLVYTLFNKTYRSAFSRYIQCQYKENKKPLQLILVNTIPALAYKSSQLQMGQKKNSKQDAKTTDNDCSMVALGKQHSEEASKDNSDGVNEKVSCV

| Compound | Ki [1] | Ki [2] | Ki [3] |
| --- | --- | --- | --- |
| COc1ccc(-c2c[nH]c(NC(C)=O)n2)c2ccccc12 [Compound 103B, N-[4-(4-Methoxy-naphthalen-1-yl)-1H-imidazol-2-yl]-acetamide] | < 1000 nM | > 10000 nM | > 10000 nM |
| COc1c(-c2cnc(NC(C)=O)[nH]2)ccc2ccccc12 [Compound 103E, N-[4-(1-Methoxy-naphthalen-2-yl)-1H-imidazol-2-yl]-acetamide] | < 100 nM | > 1000 nM | > 10000 nM |
| CC(=O)Nc1nc(-c2cccc3ccc(Br)cc23)c[nH]1 [Compound 103G, N-[4-(7-Bromo-naphthalen-1-yl)-1H-imidazol-2-yl]-acetamide] | < 100 nM | > 1000 nM | > 1000 nM |
| CC(=O)Nc1nc(-c2cccc3c(Br)cccc23)c[nH]1 [Compound 103H, N-[4-(5-Bromo-naphthalen-1-yl)-1H-imidazol-2-yl]-acetamide] | < 100 nM | > 1000 nM | > 1000 nM |
| CC(=O)Nc1nc(-c2cccc3ccccc23)c(C)[nH]1 [Compound 103I, N-(5-Methyl-4-naphthalen-1-yl-1H-imidazol-2-yl)-acetamide] | < 100 nM | > 1000 nM | > 1000 nM |
| CC(=O)Nc1nc(-c2cccc3sccc23)c[nH]1 [Compound 103L, N-(4-Benzo[b]thiophen-4-yl-1H-imidazol-2-yl)-acetamide] | < 100 nM | > 10000 nM | > 10000 nM |
| CC(=O)Nc1nc(-c2cccc3ccccc23)c[nH]1 [Compound 103N, N-(4-Naphthalen-1-yl-1H-imidazol-2-yl)-acetamide] | < 1000 nM | > 10000 nM | > 10000 nM |
| CC(=O)Nc1ncc(-c2sc3ccccc3c2C)[nH]1 [Compound 103O, N-[4-(3-Methyl-benzo[b]thiophen-2-yl)-1H-imidazol-2-yl]-acetamide] | < 1000 nM | > 10000 nM | > 10000 nM |
| CC(=O)Nc1nc(-c2c(O)ccc3ccccc23)c[nH]1 [Compound 103Q, N-[4-(2-hydroxy-naphthalen-1-yl)-1H-imidazol-2-yl]-acetamide] | < 1000 nM | > 1000 nM | > 3160 nM |
| CCOc1ccc2ccccc2c1-c1c[nH]c(N)n1 [Compound 104A, 4-(2-Ethoxy-naphthalen-1-yl)-1H-imidazol-2-ylamine] | < 1000 nM | > 100 nM | > 1000 nM |
| COc1ccc(-c2c[nH]c(N)n2)c2ccccc12 [Compound 104B, 4-(4-Methoxy-naphthalen-1-yl)-1H-imidazol-2-ylamine] | < 100 nM | > 3160 nM | > 3160 nM |
| COc1c(-c2cnc(N)[nH]2)ccc2ccccc12 [Compound 104E, 4-(1-Methoxy-naphthalen-2-yl)-1H-imidazol-2-ylamine] | < 100 nM | > 100 nM | > 1000 nM |
| Nc1nc(-c2ccc(F)c3ccccc23)c[nH]1 [Compound 104F, 4-(4-Fluoro-naphthalen-1-yl)-1H-imidazol-2-ylamine] | < 100 nM | > 1000 nM | > 1000 nM |
| Nc1nc(-c2cccc3ccc(Br)cc23)c[nH]1 [Compound 104G, 4-(7-Bromo-naphthalen-1-yl)-1H-imidazol-2-ylamine] | < 100 nM | > 316 nM | > 316 nM |
| Nc1nc(-c2cccc3c(Br)cccc23)c[nH]1 [Compound 104H, 4-(5-Bromo-naphthalen-1-yl)-1H-imidazol-2-ylamine] | < 100 nM | > 100 nM | > 316 nM |
| Cc1[nH]c(N)nc1-c1cccc2ccccc12 [Compound 104I, 5-Methyl-4-naphthalen-1-yl-1H-imidazol-2-ylamine] | < 100 nM | > 1000 nM | > 3160 nM |
| CC(C)c1[nH]c(N)nc1-c1cccc2ccccc12 [Compound 104K, 5-Isopropyl-4-naphthalen-1-yl-1H-imidazol-2-ylamine] | < 100 nM | > 316 nM | > 100 nM |
| Cc1c(-c2cnc(N)[nH]2)sc2ccccc12 [Compound 104O, 4-(3-Methyl-benzo[b]thiophen-2-yl)-1H-imidazol-2-ylamine] | < 316 nM | > 316 nM | > 10000 nM |
| Nc1nc(-c2ccc(-c3ccccc3)cc2)c[nH]1 [Compound 104P, 4-Biphenyl-4-yl-1H-imidazol-2-ylamine] | < 316 nM | > 316 nM | > 100 nM |
| Nc1nc(-c2cccc(-c3ccccc3)c2)c[nH]1 [Compound 108, 4-biphenyl-3-yl-1H-imidazol-2-ylamine] | < 100 nM | > 100 nM | > 316 nM |
| Nc1ncc(-c2cccc(-c3ccccc3)c2)o1 [Compound 209A, 5-Biphenyl-3-yl-oxazol-2-ylamine] | < 316 nM | > 10000 nM | > 10000 nM |
| Cc1cccc(-c2cccc(-c3cnc(N)o3)c2)c1 [Compound 209B, 5-(3′-Methyl-biphenyl-3-yl)-oxazol-2-ylamine] | < 316 nM | > 10000 nM | > 10000 nM |
| Nc1ncc(-c2cccc(-c3cccc(O)c3)c2)o1 [Compound 209C, 3′-(2-Amino-oxazol-5-yl)-biphenyl-3-ol] | < 1000 nM | > 10000 nM | > 10000 nM |
| Nc1ncc(-c2cccc(-c3ccccc3Cl)c2)o1 [Compound 209E, 5-(2′-Chloro-biphenyl-3-yl)-oxazol-2-ylamine] | < 316 nM | > 10000 nM | > 1000 nM |
| COc1ccccc1-c1cccc(-c2cnc(N)o2)c1 [Compound 209G, 5-(2′-Methoxy-biphenyl-3-yl)-oxazol-2-ylamine trifluoroacetic acid] | < 100 nM | > 1000 nM | > 1000 nM |
